Experimental data as given in patent US9932300B2, “N,N′-diarylurea compounds and N,N′-diarylthiourea compounds as inhibitors of translation initiation” (President and Fellows of Harvard College, priority 2009, dated 2018).

Tested on: eIF2-GTP-Met-tRNAi ternary complex
Experiment: Ternary complex assay (dual luciferase, firefly/renilla ratio) in stable KLN-tTA/pBISA-DL(ATF-4) cells; HTS and hit confirmation
Format: cell-based, mouse
Design: Activity 10 uM / Activity 2.5 uM / Activity 5 uM: unit not given here
Settings: confirmed hits of the screen (Table 5); for Activity 2.5 uM: compound at 2.5 uM; for Activity 10 uM: compound at 10 uM

| Structure (SMILES) | Activity 2.5 uM | Activity 10 uM |
| --- | --- | --- |
| Nc1nc(=S)c2c(nc[n]2[Hg][c]2ccc([N+](=O)[O-])cc2)[nH]1 [Compound 631945] | 0.76 | 5.72 |
| Cc1cc[c]([Hg][S]C(=S)NNc2ccccc2)cc1 [Compound 631946] | 13.13 |  |
| COc1ccc(/C=N/Nc2nc(-c3cc4oc(=O)n(C)c4cc3Cl)cs2)cc1OC [Compound 632134] | 1.26 | 3.5 |
| [Cl][Ni][Cl].c1ccc(P(CCP(CCP(c2ccccc2)c2ccccc2)CCP(c2ccccc2)c2ccccc2)c2ccccc2)cc1 [Compound 633334] | 4.12 | 28.14 |
| F[P-](F)(F)(F)(F)F.[C-]#[O+].[C-]#[O+].[CH]1[CH][CH][CH][CH]1.[Mo].c1ccc(P(CC[As](c2ccccc2)c2ccccc2)CC[As](c2ccccc2)c2ccccc2)cc1 [Compound 633346] | 8.05 | 11.64 |
| F[C-](F)C(F)(F)C(F)(F)C(F)(F)C(F)(F)C(F)(F)C(F)(F)F.[CH]1[CH][CH][CH][CH]1.[Co+][I].c1ccc(P(CCP(c2ccccc2)c2ccccc2)c2ccccc2)cc1 [Compound 633992] | 13.09 |  |
| C(=C\P(c1ccccc1)c1ccccc1)/P(c1ccccc1)c1ccccc1.F[C-](F)C(F)(F)C(F)(F)F.F[P-](F)(F)(F)(F)F.[CH]1[CH][CH][CH][CH]1.[Co+2] [Compound 633995] | 14.38 | 11.56 |
| F[C-](C(F)(F)F)C(F)(F)F.[CH]1[CH][CH][CH][CH]1.[Co+][I].c1ccc(P(CCP(c2ccccc2)c2ccccc2)c2ccccc2)cc1 [Compound 633997] | 17.11 | 12.56 |
| F[C-](F)F.[C-]#[O+].[CH]1[CH][CH][CH][CH]1.[Mo].c1ccc(P(CCP(c2ccccc2)c2ccccc2)c2ccccc2)cc1 [Compound 634000] | 1.1 | 12.96 |
| F[C-](C(F)(F)F)C(F)(F)F.F[P-](F)(F)(F)(F)F.[CH]1[CH][CH][CH][CH]1.[Co+2].c1ccc(P(CCP(c2ccccc2)c2ccccc2)c2ccccc2)cc1 [Compound 634014] | 11.17 | 12.92 |
| C[Si](C)(C)c1ccc(CC2(Cc3ccc([Si](C)(C)C)cc3)CCNC2)cc1 [Compound 634157] | 0.8 | 3.99 |
| F[P-](F)(F)(F)(F)F.[Cl][Co+].c1ccc(P(CCP(CCP(c2ccccc2)c2ccccc2)CCP(c2ccccc2)c2ccccc2)c2ccccc2)cc1 [Compound 634838] | 13.01 | 30.9 |
| C[C-]=O.[C-]#[O+].[C-]#[O+].[Mn].c1ccc(P(CCP(c2ccccc2)c2ccccc2)CCP(c2ccccc2)c2ccccc2)cc1 [Compound 634842] | 1.71 | 8.37 |
| c1ccc(P(CC[As](c2ccccc2)c2ccccc2)CC[As](c2ccccc2)c2ccccc2)cc1 [Compound 635022] | 0.96 | 4.8 |
| [Pt].c1ccc(P(CCP(CCP(c2ccccc2)c2ccccc2)CCP(c2ccccc2)c2ccccc2)c2ccccc2)cc1 [Compound 635030] | 1.68 | 71.33 |
| [C-]#[O+].[C-]#[O+].[C-]#[O+].[C-]#[O+].[C-]#[O+].[CH]1[CH][CH][CH][CH]1.[CH]1[CH][CH][CH][CH]1.[Mo].[Mo].c1ccc(P(CCP(c2ccccc2)c2ccccc2)c2ccccc2)cc1 [Compound 635072] | 1.59 | 5.58 |
| CCOC(=O)/C(=C\c1ccc(N(C)C)cc1)[Se]c1ccccc1 [Compound 638113] | 1.87 | 3.17 |
| C/C(=N/O)c1ccc2c(c1)C(=NO)c1cc(/C(C)=N/O)ccc1-2 [Compound 642485] | 1.93 | 3.59 |

| Structure (SMILES) | Activity 2.5 uM | Activity 10 uM |
| --- | --- | --- |
| CCOC(=O)C(C(=O)OCC)c1ccc([N+](=O)[O-])o1 [Compound 643139] |  | 7.511 |
| COc1ccc(C2=NN(C(C)=O)c3nc4ccccc4nc3O2)cc1 [Compound 643713] | 2.72 | 4.87 |
| CC1=NN(c2ccccc2)C(=O)C1=C1SCCCS1 [Compound 643762] | 1.99 | 3.47 |
| CCC[CH2][Sn]([CH2]CCC)([CH2]CCC)[O]c1cccccc1=O [Compound 644907] | 4.97 |  |
| Nc1nc2c(N)cc(C(F)(F)F)cc2nc1-c1ccccc1 [Compound 645170] | 3 | 5.1 |
| CCCCCCN(CCCCCC)C(=S)N/N=C(\C)c1ccccn1 [Compound 647131] | 1.96 | 17.42 |
| CC(=O)Nc1ccc(C(O)/C(=N/N)c2nc3ccc(Cl)cc3[nH]c2=O)cc1 (stereo not drawn) [Compound 647590] | 2.31 | 3.22 |
| CCCN(CCC)c1c([N+](=O)[O-])cc(S(N)(=O)=O)cc1[N+](=O)[O-] [Compound 648479] | 2.55 | 3.37 |
| Cc1ccc(C2C(Cl)C(=O)N2n2cnc3ccccc3c2=O)cc1 (stereo not drawn) [Compound 650027] | 4.2 | 4.42 |
| COc1ccc(/C=C(\C2=NC(=O)CS2)c2nc3ccccc3[nH]2)cc1 [Compound 652047] | 1.15 | 3.51 |
| COc1ccc2c3ccc4c(c3n(C)c2c1)C(=O)C=CC4=O [Compound 652257] | 3.09 | 8.74 |
| O=c1c([Se]c2coc3ccccc3c2=O)coc2ccccc12 [Compound 652531] | 0.71 | 12.9 |
| O=[N+]([O-])[O-].O=[N+]([O-])[O-].[Au].[Au].c1ccc([P-]c2ccccc2)cc1.c1ccc([P-]c2ccccc2)cc1 [Compound 652594] | 1.46 | 14.89 |
| O=C1/C(=C/c2ccc(O)c(O)c2)CCC/C1=C\c1ccc(O)c(O)c1 [Compound 652890] | 2.23 | 7.57 |
| COc1ccc(-c2nnc(-c3nsc4ccccc34)o2)cc1 [Compound 652917] | 2.33 | 3.31 |
| COc1ccc(Nc2nnc(-c3nsc4ccccc34)s2)cc1 [Compound 652924] | 1.78 | 3.58 |
| CCN(CC)CCCNc1ncc(C)c2c1c1ccc3c(O)cccc3c1n2C [Compound 653438] | 0.755 | 12.32 |
